Laboratory results published in patent US9839642B2, “Beta-tetrazolyl-propionic acids as metallo-beta-lactamase inhibitors” (priority 2014, dated 2017).
pIC50: −log10 of the molar value. Read-outs that look alike come from different tables or passages of the source.

Tests used:
[1] = tested on: Klebsiella pneumoniae expressing VIM-1 (IHMA599644); experiment: Antibiotic potentiation activity: synergistic concentration (MITC95) with imipenem, growth by OD600; assay type: cell-based; details: K. pneumoniae IHMA599644 (VIM-1), 95% inhibition of growth
Procedure, shortened: (§1)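 Colonies from overnight agar plates (35 °C) were suspended in saline and diluted 1:100 into 1.1× CAMHB. Inhibitor (final 200 μM to 0.195 μM) was combined with imipenem at 1 or 4 μg/ml, incubated 22–24 h at 35 °C, and absorbance read; MITC95 is the lowest inhibitor concentration giving 95% growth inhibition.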

[2] = tested on: Escherichia coli expressing NDM-1 (CLB30016); experiment: as above; assay type: cell-based; details: E. coli CLB30016 (NDM-1), 95% inhibition of growth
Procedure, shortened: as §1

[3] = tested on: Serratia marcescens expressing IMP-1 (CL5741); experiment: as above; assay type: cell-based; details: S. marcescens CL5741 (IMP-1), 95% inhibition of growth
Procedure, shortened: as §1

IMP-1 = IMP-1 (Serratia marcescens, UniProt P52699); experiment: Enzyme activity: determination of IC50, fluorescence assay with CCF2-FA substrate; assay type: biochemical; details: IMP-1 enzyme 2 pM, CCF2-FA 1.25 μM, 2 hours at 25° C.; read-out: IMP1 IC50
Procedure, shortened: (§2)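 Enzyme at 1 pM (NDM-1), 2 pM (IMP-1) or 30 pM (VIM-1) was incubated with inhibitor (20 μM to 0.00063 μM) and 1.25 μM CCF2-FA in 100 mM KH2PO4 pH 7, 0.005% Tween-20, 10 μM ZnSO4 for 2 hours at 25° C. Fluorescence was read at ex 405/em 460 nm; IC50 from 4-parameter fit.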

VIM-1 = VIM-1 (Pseudomonas aeruginosa, UniProt A0A0F7KYQ8); experiment: as above; assay type: biochemical; details: VIM-1 enzyme 30 pM, CCF2-FA 1.25 μM, 2 hours at 25° C.; read-out: VIM1 IC50
Procedure, shortened: as §2

NDM-1 = NDM-1 (Klebsiella pneumoniae, UniProt C7C422); experiment: as above; assay type: biochemical; details: CCF2-FA 1.25 μM, 2 hours at 25° C.
Procedure, shortened: as §2

[4] = NDM-1 enzyme 1 pM, read-out: NDM1 IC50

Sequence of IMP-1 (P52699 19-246, looked up, species assumed): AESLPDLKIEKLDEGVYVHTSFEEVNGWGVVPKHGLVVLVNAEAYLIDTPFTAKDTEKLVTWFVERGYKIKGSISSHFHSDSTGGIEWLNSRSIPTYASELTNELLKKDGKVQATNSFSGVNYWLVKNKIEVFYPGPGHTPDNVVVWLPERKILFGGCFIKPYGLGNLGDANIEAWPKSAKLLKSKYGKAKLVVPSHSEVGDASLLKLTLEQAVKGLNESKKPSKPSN
Sequence of NDM-1 (C7C422 29-270, looked up, species assumed): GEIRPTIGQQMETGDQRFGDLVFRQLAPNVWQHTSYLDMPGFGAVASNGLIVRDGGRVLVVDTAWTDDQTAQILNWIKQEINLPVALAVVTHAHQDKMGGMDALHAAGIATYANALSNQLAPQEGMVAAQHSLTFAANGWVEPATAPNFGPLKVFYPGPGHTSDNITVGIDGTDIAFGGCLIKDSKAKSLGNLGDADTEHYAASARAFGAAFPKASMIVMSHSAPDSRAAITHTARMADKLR

`CCC[C@H](C(=O)O)[C@H](Cc1ccc2c(c1)CNC2)c1nnn[nH]1` [Example 437, (S)-2-((S)-2-(isoindolin-5-yl)-1-(1H-tetrazol-5-yl)ethyl)pentanoic acid compound with 2,2,2-trifluoroacetic acid (1:1)] was tested, and the “VIM1 KP599644 MITC95” value [1] was 6.25 µM, the “NDM1 EC30016 MITC95” value [2] was 4.688 µM and the “IMP1 SM5741 MITC95” value [3] was 150 µM. The pIC50 (IMP-1) was 4.94, the pIC50 (VIM-1) was 8.76 and the pIC50 (NDM-1; [4]) was 6.27.

In the case of `CC(C)C[C@H](C(=O)O)[C@H](Cc1ccc(CCN2CCCCC2=O)c(F)c1)c1nn[nH]n1` [Example 438, (S)-2-((S)-2-(3-fluoro-4-(2-(2-oxopiperidin-1-yl)ethyl)phenyl)-1-(2H-tetrazol-5-yl)ethyl)-4-methylpentanoic acid], the “VIM1 KP599644 MITC95” value [1] was 75 µM, the “NDM1 EC30016 MITC95” value [2] was 25 µM and the “IMP1 SM5741 MITC95” value [3] was 1.172 µM. The pIC50 (IMP-1) was 8.31, the pIC50 (VIM-1) was 8.80 and the pIC50 (NDM-1; [4]) was 7.87.

`CC(C)C[C@H](C(=O)O)[C@H](Cc1ccc(CN2CCC(O)C2)c(F)c1)c1nn[nH]n1.O=C(O)C(F)(F)F` (stereo partly drawn) [Example 439, 5-((2S,3S)-3-carboxy-1-(3-fluoro-4-((3-hydroxypyrrolidin-1-yl)methyl)phenyl)-5-methylhexan-2-yl)-2H-tetrazol-3-ium 2,2,2-trifluoroacetate] was tested, and the “VIM1 KP599644 MITC95” value [1] was 37.5 µM, the “NDM1 EC30016 MITC95” value [2] was 31.25 µM and the “IMP1 SM5741 MITC95” value [3] was 37.5 µM. For the same molecule, the pIC50 (IMP-1) was 6.32, the pIC50 (VIM-1) was 8.36 and the pIC50 (NDM-1; [4]) was 6.65.

With `CC(C)C[C@H](C(=O)O)[C@H](Cc1ccc(CCCN)c(F)c1)c1nn[nH]n1.O=C(O)C(F)(F)F` [Example 440, 5-((2S,3S)-1-(4-(3-aminopropyl)-3-fluorophenyl)-3-carboxy-5-methylhexan-2-yl)-2H-tetrazol-3-ium 2,2,2-trifluoroacetate] the “VIM1 KP599644 MITC95” value [1] was 12.5 µM, the “NDM1 EC30016 MITC95” value [2] was 6.25 µM and the “IMP1 SM5741 MITC95” value [3] was 6.25 µM. The pIC50 (IMP-1) was 6.91, the pIC50 (VIM-1) was 8.79 and the pIC50 (NDM-1; [4]) was 7.43.

`CC(C)C[C@H](C(=O)O)[C@H](Cc1ccc(COCCN2CCNCC2)c(F)c1)c1nn[nH]n1.O=C(O)C(F)(F)F` [Example 441, 5-((2S,3S)-3-carboxy-1-(3-fluoro-4-((2-(piperazin-1-yl)ethoxy)methyl)phenyl)-5-methylhexan-2-yl)-4422H-tetrazol-3-ium 2,2,2-trifluoroacetate] was tested, and the “VIM1 KP599644 MITC95” value [1] was 50 µM, the “NDM1 EC30016 MITC95” value [2] was 25 µM and the “IMP1 SM5741 MITC95” value [3] was 18.75 µM. For the same molecule, the pIC50 (IMP-1) was 6.67, the pIC50 (VIM-1) was 7.71 and the pIC50 (NDM-1; [4]) was 6.95.

With `CC(C)C[C@H](C(=O)O)[C@H](Cc1ccc(COCC2CCNCC2)c(F)c1)c1nn[nH]n1.O=C(O)C(F)(F)F` [Example 442, 5-((2S,3S)-3-carboxy-1-(3-fluoro-4-((piperidin-4-ylmethoxy)methyl)phenyl)-5-methylhexan-2-yl)-2H-tetrazol-3-ium 2,2,2-trifluoroacetate] the “VIM1 KP599644 MITC95” value [1] was 25 µM, the “NDM1 EC30016 MITC95” value [2] was 12.5 µM and the “IMP1 SM5741 MITC95” value [3] was 6.25 µM. It also gave a pIC50 (IMP-1) of 6.96, a pIC50 (VIM-1) of 8.06 and a pIC50 (NDM-1; [4]) of 7.13.

With `CC(C)C[C@H](C(=O)O)[C@H](Cc1ccc(CN(C)C)c(F)c1)c1nn[nH]n1.O=C(O)C(F)(F)F` [Example 443, 1-(4-((2S,3S)-3-carboxy-5-methyl-2-(2H-tetrazol-5-yl)hexyl)-2-fluorophenyl)-N,N-dimethylmethanaminium 2,2,2-trifluoroacetate] the “VIM1 KP599644 MITC95” value [1] was 25 µM, the “NDM1 EC30016 MITC95” value [2] was 12.5 µM and the “IMP1 SM5741 MITC95” value [3] was 37.5 µM. For the same molecule, the pIC50 (IMP-1) was 5.98, the pIC50 (VIM-1) was 8.37 and the pIC50 (NDM-1; [4]) was 6.53.

For `CC(C)C[C@H](C(=O)O)[C@H](Cc1ccc(CN2CCC(N)CC2)c(F)c1)c1nn[nH]n1.O=C(O)C(F)(F)F` [Example 444, 1-(4-((2S,3S)-3-carboxy-5-methyl-2-(2H-tetrazol-5-yl)hexyl)-2-fluorobenzyl)piperidin-4-aminium 2,2,2-trifluoroacetate], the “VIM1 KP599644 MITC95” value [1] was 25 µM, the “NDM1 EC30016 MITC95” value [2] was 9.375 µM and the “IMP1 SM5741 MITC95” value [3] was 12.5 µM. For the same molecule, the pIC50 (IMP-1) was 6.67, the pIC50 (VIM-1) was 7.12 and the pIC50 (NDM-1; [4]) was 7.08.

For `CC(C)C[C@H](C(=O)O)[C@H](Cc1ccc(CCN)c(F)c1)c1nn[nH]n1.O=C(O)C(F)(F)F` [Example 445, 2-(4-((2S,3S)-3-carboxy-5-methyl-2-(2H-tetrazol-5-yl)hexyl)-2-fluorophenyl)ethanaminium 2,2,2-trifluoroacetate], the “VIM1 KP599644 MITC95” value [1] was 12.5 µM, the “NDM1 EC30016 MITC95” value [2] was 9.375 µM and the “IMP1 SM5741 MITC95” value [3] was 25 µM. The pIC50 (IMP-1) was 6.16, the pIC50 (VIM-1) was 8.70 and the pIC50 (NDM-1; [4]) was 6.55.

In the case of `CC(C)C[C@H](C(=O)O)[C@H](Cc1ccc(CN2CCNCC2)c(F)c1)c1nn[nH]n1.O=C(O)C(F)(F)F` [Example 446, 4-(4-((2S,3S)-3-carboxy-5-methyl-2-(2H-tetrazol-5-yl)hexyl)-2-fluorobenzyl)piperazin-1-ium 2,2,2-trifluoroacetate], the “VIM1 KP599644 MITC95” value [1] was 25 µM, the “NDM1 EC30016 MITC95” value [2] was 12.5 µM and the “IMP1 SM5741 MITC95” value [3] was 18.75 µM. It also gave a pIC50 (IMP-1) of 6.42, a pIC50 (VIM-1) of 8.16 and a pIC50 (NDM-1; [4]) of 6.77.

For `CC(C)C[C@H](C(=O)O)[C@H](Cc1ccc(COC2CCNCC2)c(F)c1)c1nn[nH]n1.O=C(O)C(F)(F)F` [Example 447, 4-((4-((2S,3S)-3-carboxy-5-methyl-2-(2H-tetrazol-5-yl)hexyl)-2-fluorobenzyl)oxy)piperidin-1-ium 2,2,2-trifluoroacetate], the “VIM1 KP599644 MITC95” value [1] was 25 µM, the “NDM1 EC30016 MITC95” value [2] was 9.375 µM and the “IMP1 SM5741 MITC95” value [3] was 6.25 µM. It also gave a pIC50 (IMP-1) of 6.79, a pIC50 (VIM-1) of 8.20 and a pIC50 (NDM-1; [4]) of 6.98.

With `CCC[C@H](C(=O)O)[C@H](Cc1ccccc1C1=CCC(NC)CC1)c1nn[nH]n1` (stereo partly drawn) [Example 448, 2′-((2S,3S)-3-carboxy-2-(2H-tetrazol-5-yl)hexyl)-N-methyl-2,3,4,5-tetrahydro-[1,1′-biphenyl]-4-aminium 2,2,2-trifluoroacetate] the “VIM1 KP599644 MITC95” value [1] was 37.5 µM, the “NDM1 EC30016 MITC95” value [2] was 12.5 µM and the “IMP1 SM5741 MITC95” value [3] was 200 µM. The pIC50 (IMP-1) was 5.11, the pIC50 (VIM-1) was 7.31 and the pIC50 (NDM-1; [4]) was 7.03.

With `CCC[C@H](C(=O)O)[C@H](Cc1ccccc1C1=CCC(N)CC1)c1nn[nH]n1` (stereo partly drawn) [Example 449, 2′-((2S,3S)-3-carboxy-2-(2H-tetrazol-5-yl)hexyl)-2,3,4,5-tetrahydro-[1,1′-biphenyl]-4-aminium 2,2,2-trifluoroacetate] the “VIM1 KP599644 MITC95” value [1] was 25 µM, the “NDM1 EC30016 MITC95” value [2] was 9.375 µM and the “IMP1 SM5741 MITC95” value [3] was 200 µM. It also gave a pIC50 (IMP-1) of 5.05, a pIC50 (VIM-1) of 7.06 and a pIC50 (NDM-1; [4]) of 7.14.

In the case of `CC(C)C[C@H](C(=O)O)[C@H](Cc1ccc(C2=CCCNC2)c(F)c1)c1nn[nH]n1` [Example 450, 5-(4-((2S,3S)-3-carboxy-5-methyl-2-(2H-tetrazol-5-yl)hexyl)-2-fluorophenyl)-1,2,3,6-tetrahydropyridin-1-ium 2,2,2-trifluoroacetate], the “VIM1 KP599644 MITC95” value [1] was 18.75 µM, the “NDM1 EC30016 MITC95” value [2] was 7.813 µM and the “IMP1 SM5741 MITC95” value [3] was 6.25 µM. The pIC50 (IMP-1) was 6.86, the pIC50 (VIM-1) was 8.66 and the pIC50 (NDM-1; [4]) was 7.05.

For `CNC1CC=C(c2ccc(C[C@H](c3nn[nH]n3)[C@H](CC(C)C)C(=O)O)cc2F)CC1` (stereo partly drawn) [Example 451, 4′-((2S,3S)-3-carboxy-5-methyl-2-(2H-tetrazol-5-yl)hexyl)-2′-fluoro-N-methyl-2,3,4,5-tetrahydro-[1,1′-biphenyl]-4-aminium 2,2,2-trifluoroacetate], the “VIM1 KP599644 MITC95” value [1] was 25 µM, the “NDM1 EC30016 MITC95” value [2] was 9.375 µM and the “IMP1 SM5741 MITC95” value [3] was 3.125 µM. It also gave a pIC50 (IMP-1) of 7.57, a pIC50 (VIM-1) of 8.00 and a pIC50 (NDM-1; [4]) of 7.51.

With `CC(C)C[C@H](C(=O)O)[C@H](Cc1ccc(C2=CCNC2)c(F)c1)c1nn[nH]n1` [Example 452, 3-(4-((2S,3S)-3-carboxy-5-methyl-2-(2H-tetrazol-5-yl)hexyl)-2-fluorophenyl)-2,5-dihydro-1H-pyrrol-1-ium 2,2,2-trifluoroacetate] the “VIM1 KP599644 MITC95” value [1] was 12.5 µM, the “NDM1 EC30016 MITC95” value [2] was 9.375 µM and the “IMP1 SM5741 MITC95” value [3] was 9.375 µM. The pIC50 (IMP-1) was 6.65, the pIC50 (VIM-1) was 9.03 and the pIC50 (NDM-1; [4]) was 7.03.

With `CC(C)C[C@H](C(=O)O)[C@H](Cc1ccc(C2=CCNCC2)c(F)c1)c1nn[nH]n1` [Example 453, 4-(4-((2S,3S)-3-carboxy-5-methyl-2-(2H-tetrazol-5-yl)hexyl)-2-fluorophenyl)-1,2,3,6-tetrahydropyridin-1-ium 2,2,2-trifluoroacetate] the “VIM1 KP599644 MITC95” value [1] was 12.5 µM, the “NDM1 EC30016 MITC95” value [2] was 6.25 µM and the “IMP1 SM5741 MITC95” value [3] was 3.125 µM. The pIC50 (IMP-1) was 7.00, the pIC50 (VIM-1) was 8.65 and the pIC50 (NDM-1; NDM1 IC50, NDM-1 enzyme 1 pM) was 7.19.
